The values that follow come from patent US11530244B2, “Cyclic polypeptides for PCSK9 inhibition” (priority 2018, dated 2022).

Structures are written as SMILES. pIC50: −log10 of the molar value. Where a name gives a salt, the structure may show the parent alone. Starred links: 1 amine or outer side, 2 acyl side, 3 side chain; linkers in the order of their positions; H or OH if unused. Positions of bridges follow the written chain, without caps; N, C: chain ends. Non-standard residues stand in square brackets, D forms with d. Residues, ends and D or L forms follow the SMILES beside them. Groups on a side chain read outwards from the residue. *: point of attachment. Phe(3-CH2NH2) = O=C([C@H](Cc1cccc(CN[*:3])c1)N[*:1])[*:2]; Ala(imidazol-2-yl) = N[C@@H](Cc1ncc[nH]1)C(=O)O; Trp(5-F) = N[C@@H](Cc1c[nH]c2ccc(F)cc12)C(=O)O; Phe(4-CH2NH2) = NCc1ccc(C[C@H](N)C(=O)O)cc1; Heptanedioyl = O=C(CCCCCC(=O)[*:2])[*:1]; Pro(cis-4-F) = O=C(O)[C@@H]1C[C@H](F)CN1; γGlu = O=C(O)[C@H](CCC(=O)[*:2])N[*:1]; mXylylene = c1cc(C[*:1])cc(C[*:2])c1; AEF = NCCOc1ccc(C[C@H](N)C(=O)O)cc1; Adipoyl = O=C(CCCCC(=O)[*:2])[*:1]; Glutaryl = O=C(CCCC(=O)[*:2])[*:1]; Palmitoyl = CCCCCCCCCCCCCCCC(=O)*; X44 = O=C(C[*:2])NCCCC(=O)[*:1]; αMeP = C[C@@]1(C(=O)O)CCCN1; Orn = NCCC[C@H](N)C(=O)O; AEEA = NCCOCCOCC(=O)O; X2 = O=C(C[*:2])[*:1]; Tfa = O=C(C(F)(F)F)*; Glycolyl = O=C(CO)*; Mpa = O=C(O)CCS

Assay [1] deals with T1, PCSK9 (Homo sapiens (Human), UniProt Q8NBP7). Nature of the assay: PCSK9 Alexa FRET Plus assay (displacement of AlexaFluor647 tagged cyclic peptide Reagent B). It is filed as binding. The following applies: Alexa FRET Plus, 0.5 nM PCSK9, 960 nM AF cyclic peptide Reagent B; read-out: IC50. The method in brief:
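TR-FRET displacement with final 0.5 nM biotinylated PCSK9, 1.25 nM Strep-Eu and 960 nM AlexaFluor-tagged cyclic peptide in HEPES pH 7.4, NaCl, CaCl2, BSA, P20; ≥2 h at room temperature. IC50 from sigmoidal fit, converted to Ki using peptide KD. Falling europium counts flagged false positives.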

Assay [2] addresses T1, PCSK9. Nature of the assay: PCSK9 Alexa FRET Standard assay (displacement of AlexaFluor647 tagged cyclic peptide Reagent A). It is filed as binding. To be noted: PCSK9 Alexa FRET Standard assay, 0.5 nM PCSK9, 20 nM AF cyclic peptide Reagent A; read-out: IC50. The essentials:
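TR-FRET displacement: 0.5 nM biotinylated PCSK9 with 1.25 nM Strep-Eu and 20 nM AlexaFluor-tagged cyclic peptide (final) in 50 mM HEPES pH 7.4, 0.15 M NaCl, 5 mM CaCl2, 0.01% BSA, 0.01% P20, ≥2 h at room temperature. IC50 from sigmoidal fit, converted to Ki via peptide KD; falling Eu counts flagged false positives.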

T1 sequence (Q8NBP7 153-692): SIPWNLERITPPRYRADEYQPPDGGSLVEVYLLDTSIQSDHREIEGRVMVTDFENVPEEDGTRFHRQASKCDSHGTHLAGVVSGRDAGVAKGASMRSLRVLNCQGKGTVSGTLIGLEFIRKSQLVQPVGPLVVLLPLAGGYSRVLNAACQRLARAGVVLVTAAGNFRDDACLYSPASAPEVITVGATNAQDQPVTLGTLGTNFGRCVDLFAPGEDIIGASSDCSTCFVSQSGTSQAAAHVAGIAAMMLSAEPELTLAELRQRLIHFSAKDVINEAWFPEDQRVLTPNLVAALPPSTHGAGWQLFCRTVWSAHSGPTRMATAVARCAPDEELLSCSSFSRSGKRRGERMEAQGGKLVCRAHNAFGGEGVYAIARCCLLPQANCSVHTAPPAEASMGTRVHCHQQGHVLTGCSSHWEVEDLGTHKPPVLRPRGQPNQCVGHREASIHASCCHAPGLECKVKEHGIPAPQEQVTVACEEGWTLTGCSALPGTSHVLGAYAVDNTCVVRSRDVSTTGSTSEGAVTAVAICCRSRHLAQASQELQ

For the compound `COc1ccc(C[C@@H]2NC(=O)[C@H]([C@@H](C)O)NC(=O)[C@@H]3C[C@H](F)CN3C(=O)[C@H](Cc3c[nH]c4ccc(F)cc34)NC(=O)[C@H](Cc3c[nH]c4ccc(F)cc34)NC(=O)[C@@H](C)NC(=O)[C@H](CCCCN)NC(=O)[C@@H](NC(=O)C(F)(F)F)CC(=O)NCCOc3ccc(cc3)C[C@@H](C(N)=O)NC(=O)[C@]3(C)CCCN3C2=O)cc1` [Compound 124] (Tfa-DK[dA][Trp(5-F)][Trp(5-F)][Pro(cis-4-F)]TY(Me)[αMeP][AEF]-NH2; lactam 1-10), the pIC50 was 7.00 to 10.00 in assay [1] and 7.00 to 9.96 in assay [2].
With `C[C@@]12CCCN1C(=O)[C@H](Cc1ccc(O)cc1)NC(=O)N[C@H]1CCCc3ccc(cc31)C(=O)[C@H](Cc1c[nH]c3ccc(F)cc13)NC(=O)[C@H](Cc1c[nH]c3ccc(F)cc13)NC(=O)CNC(=O)[C@H](CCCCN)NC(=O)CCSCc1cccc(c1)CSC[C@@H](C(N)=O)NC2=O` [Compound 139], the pIC50 in assay [1] is 5.30 to 6.30; in assay [2] it was 4.92 to 6.00.
The matching figures for `NC(=O)[C@@H]1Cc2cccc(c2)CNC(=O)CCCC(=O)NCC(=O)N[C@@H](Cc2c[nH]c3ccc(F)cc23)C(=O)N[C@@H](Cc2c[nH]c3ccc(F)cc23)C(=O)N[C@@H](CC(=O)O)C(=O)N[C@@H](Cc2ncc[nH]2)C(=O)N[C@@H](Cc2ccc(O)cc2)C(=O)N1` [Compound 458] (G[Trp(5-F)][Trp(5-F)]D[Ala(imidazol-2-yl)]Y[Phe(3-CH2NH2)]-NH2; linker N-7 via Glutaryl): 5.30 to 6.30 and 4.30 to 4.68.
`COc1ccc(C[C@@H]2NC(=O)[C@H](Cc3cnc[nH]3)NC(=O)[C@H](CC(=O)O)NC(=O)[C@H](Cc3c[nH]c4ccc(F)cc34)NC(=O)[C@H](Cc3c[nH]c4ccc(F)cc34)NC(=O)[C@@H](C)NC(=O)CCCC(=O)NCc3ccc(cc3)C[C@@H](C(N)=O)NC(=O)[C@]3(C)CCCN3C2=O)cc1` [Compound 417] ([dA][Trp(5-F)][Trp(5-F)]DHY(Me)[αMeP][Phe(4-CH2NH2)]-NH2; linker N-8 via Glutaryl): the negative logarithm of the IC50 (pIC50) in assay [1] is 6.30 to 7.00; in assay [2], 7.00 to 9.96.
The like results for `COc1ccc(C[C@@H]2NC(=O)[C@H]([C@@H](C)O)NC(=O)[C@@H]3C[C@H](F)CN3C(=O)[C@H](Cc3c[nH]c4ccc(F)cc34)NC(=O)[C@H](Cc3c[nH]c4ccc(F)cc34)NC(=O)[C@@H](C)NC(=O)[C@H](CCCCN)NC(=O)[C@@H](NC(=O)CO)CC(=O)NCCOc3ccc(cc3)C[C@@H](C(N)=O)NC(=O)[C@]3(C)CCCN3C2=O)cc1` [Compound 116] (Glycolyl-DK[dA][Trp(5-F)][Trp(5-F)][Pro(cis-4-F)]TY(Me)[αMeP][AEF]-NH2; lactam 1-10) were, in that order, 5.30 to 6.30 and 4.30 to 4.68.
As to `COc1ccc(C[C@@H]2NC(=O)[C@H]([C@@H](C)O)NC(=O)[C@@H]3C[C@H](F)CN3C(=O)[C@H](Cc3c[nH]c4ccc(F)cc34)NC(=O)[C@H](Cc3c[nH]c4ccc(F)cc34)NC(=O)[C@@H](C)NC(=O)[C@H](CCCCN)NC(=O)[C@@H](NC(C)=O)CCC/C=C\Cc3ccc(cc3)C[C@@H](C(N)=O)NC(=O)[C@]3(C)CCCN3C2=O)cc1` [Compound 137], the pIC50 was 5.30 to 6.30 in assay [1] and 4.30 to 4.68 in assay [2].
As for `CCCCCCCCCCCCCCCC(=O)N[C@@H](CCC(=O)NCCOCCOCC(=O)NCCOCCOCC(=O)NCCCC[C@@H]1NC(=O)[C@H](CCCCN)NC(=O)CCSCc2cccc(c2)CSC[C@@H](C(N)=O)NC(=O)[C@]2(C)CCCN2C(=O)[C@H](Cc2ccc(O)cc2)NC(=O)[C@H](Cc2cnc[nH]2)NC(=O)[C@H](CC(=O)O)NC(=O)[C@H](Cc2c[nH]c3ccc(F)cc23)NC(=O)[C@H](Cc2c[nH]c3ccc(F)cc23)NC1=O)C(=O)O` [Compound 452] ([Mpa]KK([AEEA-AEEA-γGlu-Palmitoyl])[Trp(5-F)][Trp(5-F)]DHY[αMeP]C-NH2; linker 1-10 via mXylylene), the pIC50 in assay [1] was 7.00 to 10.00; in assay [2], 7.00 to 9.96.
The like results for `COc1ccc(C[C@@H]2NC(=O)[C@H]([C@@H](C)O)NC(=O)[C@@H]3C[C@H](F)CN3C(=O)[C@H](Cc3c[nH]c4ccc(F)cc34)NC(=O)[C@H](Cc3c[nH]c4ccc(F)cc34)NC(=O)[C@@H](C)NC(=O)[C@H](CCCCN)NC(=O)[C@@H](NC(=O)CO)CC(=O)NCCOc3ccc(cc3)C[C@@H](C(N)=O)NC(=O)[C@]3(C)CCCN3C2=O)cc1` [Compound 115] (Glycolyl-DK[dA][Trp(5-F)][Trp(5-F)][Pro(cis-4-F)]TY(Me)[αMeP][AEF]-NH2; lactam 1-10) were, in that order, 5.30 to 6.30 and 6.00 to 7.00.
Turning to `COc1ccc(C[C@@H]2NC(=O)[C@H]([C@@H](C)O)NC(=O)[C@@H]3C[C@H](F)CN3C(=O)[C@H](Cc3c[nH]c4ccc(F)cc34)NC(=O)[C@H](Cc3c[nH]c4ccc(F)cc34)NC(=O)[C@@H](C)NC(=O)[C@H](CCCCN)NC(=O)[C@@H](NC(C)=O)CCCNC(=O)COc3ccc(cc3)C[C@@H](C(N)=O)NC(=O)[C@]3(C)CCCN3C2=O)cc1` [Compound 091] (Ac-[Orn]K[dA][Trp(5-F)][Trp(5-F)][Pro(cis-4-F)]TY(Me)[αMeP]Y-NH2; linker 1-10 via X2), the pIC50 in assay [1] is 6.30 to 7.00; in assay [2] it was 7.00 to 9.96.
For `COc1ccc(C[C@@H]2NC(=O)[C@H](Cc3cnc[nH]3)NC(=O)[C@H](CC(=O)O)NC(=O)[C@H](Cc3c[nH]c4ccc(F)cc34)NC(=O)[C@H](Cc3c[nH]c4ccc(F)cc34)NC(=O)[C@@H](C)NC(=O)CCCCCC(=O)NCc3ccc(cc3)C[C@@H](C(N)=O)NC(=O)[C@]3(C)CCCN3C2=O)cc1` [Compound 440] ([dA][Trp(5-F)][Trp(5-F)]DHY(Me)[αMeP][Phe(4-CH2NH2)]-NH2; linker N-8 via Heptanedioyl), the figures for the pIC50 in assay [1] and in assay [2] were 6.30 to 7.00 and 6.00 to 7.00, respectively.
The matching figures for `CC(=O)N[C@@H]1CCC/C=C/CO[C@H]2C[C@@H](C(N)=O)N(C2)C(=O)[C@H](Cc2ccc(O)cc2)NC(=O)[C@H](Cc2cnc[nH]2)NC(=O)[C@H](CC(=O)O)NC(=O)[C@H](Cc2c[nH]c3ccc(F)cc23)NC(=O)[C@H](Cc2c[nH]c3ccc(F)cc23)NC(=O)CNC1=O` [Compound 420]: 6.30 to 7.00 and 6.00 to 7.00.
For the compound `COc1ccc(C[C@@H]2NC(=O)[C@H]([C@@H](C)O)NC(=O)[C@@H]3C[C@H](F)CN3C(=O)[C@H](Cc3c[nH]c4ccc(F)cc34)NC(=O)[C@H](Cc3c[nH]c4ccc(F)cc34)NC(=O)[C@@H](C)NC(=O)[C@H](CCCCN)NC(=O)CCCNC(=O)COc3ccc(cc3)C[C@@H](C(N)=O)NC(=O)[C@]3(C)CCCN3C2=O)cc1` [Compound 092] (K[dA][Trp(5-F)][Trp(5-F)][Pro(cis-4-F)]TY(Me)[αMeP]Y-NH2; linker N-9 via X44), the negative-log IC50 (pIC50) in assay [1] is 7.00 to 10.00; in assay [2], 7.00 to 9.96.
For `NC(=O)[C@@H]1Cc2cccc(c2)CNC(=O)CCCCC(=O)NCC(=O)N[C@@H](Cc2c[nH]c3ccc(F)cc23)C(=O)N[C@@H](Cc2c[nH]c3ccc(F)cc23)C(=O)N[C@@H](CC(=O)O)C(=O)N[C@@H](Cc2cnc[nH]2)C(=O)N[C@@H](Cc2ccc(O)cc2)C(=O)N1` [Compound 457] (G[Trp(5-F)][Trp(5-F)]DHY[Phe(3-CH2NH2)]-NH2; linker N-7 via Adipoyl), the pIC50 in assay [1] was 5.30 to 6.30; in assay [2], 4.30 to 4.68.
`COc1ccc(C[C@@H]2NC(=O)[C@H](Cc3cnc[nH]3)NC(=O)[C@H](CC(=O)O)NC(=O)[C@H](Cc3c[nH]c4ccc(F)cc34)NC(=O)[C@H](Cc3c[nH]c4ccc(F)cc34)NC(=O)[C@@H](C)NC(=O)CCc3cn(nn3)-c3ccc(cc3)C[C@@H](C(N)=O)NC(=O)[C@]3(C)CCCN3C2=O)cc1` [Compound 416]: the pIC50 in assay [1] was 7.00 to 10.00; in assay [2], 7.00 to 9.96.
